In patent publication US11524041B2, “Ginkgo diterpene lactone composition” (Jiangsu Kanion Pharmaceutical Co., Ltd., priority 2017, dated 2022):
Where a name gives a salt, the structure may show the parent alone.

Columns and labels:
Type in all cases: in vivo
rats = test: Electric shock avoidance experiment for rats (learned helplessness electric shock model); details: compositions 6.26 mg/kg ig, imipramine 33 mg/kg oral, once a day for 35 days, results of the fifth training, X ± S
Source text: 2.3 Electric shock avoidance experiment for rats: The anti-depression effect of the drug was observed using a learned helplessness electric shock model. Healthy male rats weighing 180-220 g were selected and randomly divided into normal group, model group, positive drug group and Ginkgo diterpene lactone composition groups A-K, with 10 rats in each group. The rats in the […] were orally administered with the same normal saline every day; the rats in the positive drug group were orally administered with imipramine tablet in a daily dose of 33 mg/kg, and the rats in the Ginkgo diterpene lactone composition groups A-K were administered in a daily dose of 6.26 mg/kg (ig), once a day for 35 consecutive days. The experiment was started 30 minutes after the 30th administration. On the first day of the experiment, “helpless induction” was performed. […] The training was conducted for 5 days, and the number of successful escapes of each rat during training was recorded every day, and the results of the fifth training were counted.
(§1) 2.4 Statistical analysis: The data are expressed as (x±s). All data are analyzed by one-way ANOVA using SPSS 19.0 software to determine the significance of the difference.

mice = test: Forced swimming experiment for mice; details: compositions 9 mg/kg ig, imipramine 50 mg/kg oral, once a day for 5 days, difference of immobility times, X ± S
Procedure: 2.2 Forced swimming experiment for mice: Male mice weighing 20-24 g were selected, grouped and administered in the same manner as in Section 2.1. The experiment was started 30 minutes after the fifth administration. The mice were placed in a graduated cylinder (20 cm in height and 14 cm in diameter) with 30° C. water in the depth of 10 cm. The difference between the two immobility times of the mice themselves were calculated and then statistical analysis was conducted after Ig (X++45) conversion.
as §1

[1] = system: level of oxidative stress of rats; test: Detection of oxidative stress in serum of rats given alcohol; details: rat serum, alcohol 6 g/kg daily, compositions 3 mg/kg iv, edaravone 6.25 mg/kg iv, daily for 5 weeks, n = 10
Procedure: 2.1 Modeling and administration: Healthy male rats were selected and randomly divided into normal group, model group, positive drug group and Ginkgo diterpene lactone composition groups A-K, With the exception of the normal group, the other groups were orally administrated with alcohol with a daily dose of 6 g/kg. Rats in the positive drug group were administrated with edaravone injection (iv) in a daily dose of 6.25 mg/kg, and rats in the Ginkgo diterpene lactone composition groups A-K were administrated in a daily dose of 3 mg/kg (iv), they were continuously administrated or given alcohol for 5 weeks.
2.2 Detection of oxidative stress: After the administration, rats in each group were anesthetized with 10% chloral hydrate, abdominal aortic blood was collected and then subjected to heparin anticoagulation to separate serum; changes of MDA, SOD, GSH and TAC levels in the serum were detected according to the instructions of the kits, and the protein content of each sample was measured using the BCA protein test kit.
2.3 Statistical analysis: The data are expressed as (x±s). All data are analyzed by one-way ANOVA using SPSS 19.0 software to determine the significance of the difference.

[2] = n = 10, listed as imipramine, hydrochloride

Structure (SMILES)	Accumulative number of successful escapes (rats; n = 10, hydrochloride)	Accumulative number of successful escapes (rats; [2])	Swimming interval (X + 45) conversion (mice; n = 10, hydrochloride)	Swimming interval (X + 45) conversion (mice; [2])	MDA [1] [nmol/mg]	SOD [1] [U/mg]	TAC [1] [U/mg]	GSH ([1]; listed as edaravone injection)	MDA ([1]; listed as edaravone injection)	SOD ([1]; listed as edaravone injection)	TAC ([1]; listed as edaravone injection)
CN(C)CCCN1c2ccccc2CCc2ccccc21 [Imipramine, imipramine hydrochloride]	24.5 ± 1.5	significantly increased	4.03 ± 0.05^	significantly prolonged							
CC1=NN(c2ccccc2)C(=O)C1 [Edaravone, edaravone]					59.6 ± 20.6	769.5 ± 55.5	243.6 ± 0.9	significantly corrected	significantly corrected	significantly corrected	significantly corrected
